System: HCV 1b-377-neo replicon cells
Assay: HCV replicon assay, HCV 1b-377-neo replicon cells (1b FRET)
Format: cell-based, Hepatitis C virus genotype 1b
Settings: HCV 1b-377-neo replicon cells; HCV 1b genotype; read-out: EC50 range against HCV 1b (Table 2, Range)
Outline: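 Compounds tested in HCV genotype 1b-377-neo replicon cells with a FRET read-out. Cells resistant to a reference NS5A inhibitor through a Y2065H NS5A mutation were run alongside wild-type cells.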

SMILES | EC50 [nM]
CCC[C@H](NC(=O)OC)C(=O)N1CCC[C@H]1c1ncc(-c2ccc(-c3ccc(-c4cnc([C@@H]5CCCN5C(=O)[C@@H](NC(=O)OC)C(C)C)[nH]4)cc3)cc2)[nH]1 [Example M75, methyl ((1S)-1-(((2S)-2-(5-(4′-(2-((2S)-1-((2S)-2-((methoxycarbonyl)amino)-3-methylbutanoyl)-2-pyrrolidinyl)-1H-imidazol-5-yl)-4-biphenylyl)-1H-imidazol-2-yl)-1-pyrrolidinyl)carbonyl)butyl) carbamate] | 1 to 99

Same assay, conditions: Hepatitis C virus, HCV 1b-377-neo replicon cells; HCV 1b genotype; read-out: EC50 range against HCV 1b (Table 2, Range)

SMILES | EC50 [nM]
CCN(CC)[C@H](CC(N)=O)C(=O)N1CCC[C@H]1c1ncc(-c2ccc(-c3ccc(-c4cnc([C@@H]5CCCN5C(=O)[C@@H](NC(=O)OC)C(C)C)[nH]4)cc3)cc2)[nH]1 [Example M89, methyl ((1S)-1-(((2S)-2-(5-(4′-(2-((2S)-1-(N^2,N^2-diethyl-D-asparaginyl)-2-pyrrolidinyl)-1H-imidazol-5-yl)-4-biphenylyl)-1H-imidazol-2-yl)-1-pyrrolidinyl)carbonyl)-2-methylpropyl)carbamate] | 1 to 99
COC(=O)N[C@@H](CC(C)C)C(=O)N1C[C@H](F)C[C@H]1c1ncc(-c2ccc(-c3ccc(-c4cnc([C@@H]5C[C@@H](F)CN5C(=O)[C@H](CC(C)C)NC(=O)OC)[nH]4)cc3)cc2)[nH]1 [JG-12, methyl ((1S)-1-(((2S,4R)-4-fluoro-2-(5-(4′-(2-((2S,4R)-4-fluoro-1-((2S)-2-((methoxycarbonyl)amino)-4-methylpentanoyl)-2-pyrrolidinyl)-1H-imidazol-5-yl)-4-biphenylyl)-1H-imidazol-2-yl)-1-pyrrolidinyl)carbonyl)-3-methylbutyl)carbamate] | 0.001 to 0.999
COC(=O)N[C@@H](C)C(=O)N1CCC[C@H]1c1ncc(-c2ccc(-c3ccc(-c4cnc([C@@H]5CCCN5C(=O)[C@@H](Nc5cccnc5)C(C)C)[nH]4)cc3)cc2)[nH]1 [cj-20a, methyl ((1S)-1-methyl-2-oxo-2-((2S)-2-(5-(4′-(2-((2S)-1-(N-3-pyridinyl-L-valyl)-2-pyrrolidinyl)-1H-imidazol-5-yl)-4-biphenylyl)-1H-imidazol-2-yl)-1-pyrrolidinyl)ethyl)carbamate] | 0.001 to 0.999
COC(=O)N[C@H](C(=O)N1CCC[C@H]1c1ncc(-c2ccc(-c3ccc(-c4cnc([C@@H]5CCCN5C(=O)[C@H]5CC[C@H](NC(=O)OC)CC5)[nH]4)cc3)cc2)[nH]1)C(C)C [cj-70, methyl ((1S)-1-(((2S)-2-(5-(4′-(2-((2S)-1-((trans-4-((methoxycarbonyl)amino)cyclohexyl)carbonyl)-2-pyrrolidinyl)-1H-imidazol-5-yl)-4-biphenylyl)-1H-imidazol-2-yl)-1-pyrrolidinyl)carbonyl)-2-methylpropyl)carbamate] | 0.001 to 0.999
COC(=O)NCC(=O)N1[C@@H]2C[C@@H]2C[C@H]1c1nc(-c2ccc(-c3ccc(-c4c[nH]c([C@@H]5C[C@H]6C[C@H]6N5C(=O)CNC(=O)OC)n4)cc3)cc2)c[nH]1 [Example M134, methyl (2-((1R,3S,5R)-3-(4-(4′-(2-((1R,3S,5R)-2-(((methoxy-carbonyl)amino)acetyl)-2-azabicyclo[3.1.0]hex-3-yl)-1H-imidazol-4-yl)-4-biphenylyl)-1H-imidazol-2-yl)-2-azabicyclo[3.1.0]hex-2-yl)-2-oxoethyl)carbamate] | 1 to 99
CC(C)[C@@H](NC(=O)OC(C)(C)C)C(=O)N1[C@@H]2C[C@@H]2C[C@H]1c1nc(-c2ccc(-c3ccc(-c4c[nH]c([C@@H]5C[C@H]6C[C@H]6N5C(=O)[C@H](NC(=O)OC(C)(C)C)C(C)C)n4)cc3)cc2)c[nH]1 [Example M142, tert-butyl ((1R)-1-(((1R,3S,5R)-3-(4-(4′-(2-((1R,3S,5R)-2-((2R)-2-((tert-butoxycarbonyl)amino)-3-methylbutanoyl)-2-azabicyclo[3.1.0]hex-3-yl)-1H-imidazol-4-yl)-4-biphenylyl)-1H-imidazol-2-yl)-2-azabicyclo[3.1.0]hex-2-yl)carbonyl)-2-methylpropyl)carbamate] | 1 to 99
COC(=O)N[C@@H](C(=O)N1CCC[C@H]1c1nc(-c2ccc(-c3ccc(-c4cnc([C@@H]5CCCN5C(=O)C(c5cccnc5)N(C)C)[nH]4)cc3)cc2)c[nH]1)c1ccccc1 (stereo partly drawn) [Example 84-62, methyl ((1R)-2-((2S)-2-(4-(4′-(2-((2S)-1-((dimethylamino)(3-pyridinyl)acetyl)-2-pyrrolidinyl)-1H-imidazol-5-yl)-4-biphenylyl)-1H-imidazol-2-yl)-1-pyrrolidinyl)-2-oxo-1-phenylethyl)carbamate] | 0.001 to 0.999
COC(=O)N[C@H](C(=O)N1CCC[C@H]1c1ncc(-c2ccc(-c3ccc(-c4nc([C@@H]5CCCN5C(=O)[C@@H](NC(=O)OC)C(C)C)[nH]c4C)cc3)cc2)[nH]1)C(C)C [Example E5e, methyl ((1S)-1-(((2S)-2-(4-(4′-(2-((2S)-1-((2S)-2-((methoxycarbonyl)amino)-3-methylbutanoyl)-2-pyrrolidinyl)-1H-imidazol-4-yl)-4-biphenylyl)-5-methyl-1H-imidazol-2-yl)-1-pyrrolidinyl)carbonyl)-2-methylpropyl)carbamate] | 0.001 to 0.999
COC(=O)N[C@H](CC(=O)N1CCC[C@H]1c1ncc(-c2ccc(-c3ccc(-c4cnc([C@@H]5CCCN5C(=O)C[C@@H](NC(=O)OC)C(C)C)[nH]4)cc3)cc2)[nH]1)C(C)C [cj-127, dimethyl (4,4′-biphenyldiylbis(1H-imidazole-5,2-diyl(2S)-2,1-pyrrolidinediyl((3R)-4-methyl-1-oxo-1,3-pentanediyl)))biscarbamate] | 1 to 99
COC(=O)N[C@H](C(=O)N1CCC[C@H]1c1nc(-c2cnc(-c3ccc(-c4cnc([C@@H]5CCCN5C(=O)[C@@H](NC(=O)OC)C5CC5)[nH]4)cc3)nc2)c[nH]1)C1CC1 [Example D75, methyl ((1S)-1-cyclopropyl-2-((2S)-2-(5-(2-(4-(2-((2S)-1-((2S)-2-cyclopropyl-2-((methoxycarbonyl)amino)acetyl)-2-pyrrolidinyl)-1H-imidazol-5-yl)phenyl)-5-pyrimidinyl)-1H-imidazol-2-yl)-1-pyrrolidinyl)-2-oxoethyl)carbamate] | 0.001 to 0.999
COC(=O)N[C@@H](CC(=O)N1CCC[C@H]1c1ncc(-c2ccc(-c3ccc(-c4cnc([C@@H]5CCCN5C(=O)C[C@@H](Cc5ccccc5)NC(=O)OC)[nH]4)cc3)cc2)[nH]1)Cc1ccccc1 [cj-143, dimethyl (4,4′-biphenyldiylbis(1H-imidazole-5,2-diyl(2S)-2,1-pyrrolidinediyl((2R)-4-oxo-1-phenyl-4,2-butanediyl)))biscarbamate] | 1000 to 10000
COC(=O)N[C@H](C(=O)N1CCC[C@H]1c1ncc(-c2cnc(-c3ccc(-c4[nH]c([C@@H]5CCCN5C(=O)[C@@H](NC(=O)OC)C5CC5)nc4C(F)(F)F)cc3)nc2)[nH]1)C1CC1 [Example J49, methyl ((1S)-1-cyclopropyl-2-((2S)-2-(5-(4-(5-(2-((2S)-1-((2S)-2-cyclopropyl-2-((methoxycarbonyl)amino)acetyl)-2-pyrrolidinyl)-1H-imidazol-5-yl)-2-pyrimidinyl)phenyl)-4-(trifluoromethyl)-1H-imidazol-2-yl)-l-pyrrolidinyl)-2-oxoethyl)carbamate] | 0.001 to 0.999
O=C(O)c1nc([C@@H]2CCCN2C(=O)[C@@H](c2ccccc2)N2CCCCC2)[nH]c1-c1ccc(-c2ccc(-c3cnc([C@@H]4CCCN4C(=O)[C@@H](c4ccccc4)N4CCCCC4)[nH]3)cc2)cc1 [Example J31, 2-((2S)-1-((2R)-2-phenyl-2-(1-piperidinyl)acetyl)-2-pyrrolidinyl)-5-(4′-(2-((2S)-1-((2R)-2-phenyl-2-(1-piperidinyl)acetyl)-2-pyrrolidinyl)-1H-imidazol-5-yl)-4-biphenylyl)-1H-imidazole-4-carboxylic acid] | 0.001 to 0.999
Cn1cncc1C(=O)N[C@@H](C(=O)N1CCC[C@H]1c1ncc(-c2ccc(-c3ccc(-c4cnc([C@@H]5CCCN5C(=O)[C@H](NC(=O)c5cncn5C)c5ccccc5)[nH]4)cc3)cc2)[nH]1)c1ccccc1 [Example 25-2, N,N′-(4,4′-biphenyldiylbis(1H-imidazole-5,2-diyl(2S)-2,1-pyrrolidinediyl((1R)-2-oxo-1-phenyl-2,1-ethanediyl)))bis(1-methyl-1H-imidazole-5-carboxamide)] | 0.001 to 0.999
COC(=O)N[C@@H](CCN(C)C)C(=O)N1CCC[C@H]1c1ncc(-c2ccc(-c3ccc(-c4cnc([C@@H]5CCCN5C(=O)[C@H](CCN(C)C)NC(=O)OC)[nH]4)cc3)cc2)[nH]1 [cj-146, dimethyl (4,4′-biphenyldiylbis(1H-imidazole-5,2-diyl(2S)-2,1-pyrrolidinediyl((2S)-4-(dimethylamino)-1-oxo-1,2-butanediyl)))biscarbamate] | 100 to 999
CN1CCC[C@H]1C(=O)N[C@@H](C(=O)N1CCC[C@H]1c1ncc(-c2ccc(-c3ccc(-c4c[nH]c([C@@H]5CCCN5C(=O)[C@H]5CCCO5)n4)cc3)cc2)[nH]1)c1ccccc1 [Example 120-6, 1-methyl-N-((1R)-2-oxo-1-phenyl-2-((2S)-2-(5-(4′-(2-((2S)-1-((2R)-tetrahydro-2-furanylcarbonyl)-2-pyrrolidinyl)-1H-imidazol-4-yl)-4-biphenylyl)-1H-imidazol-2-yl)-1-pyrrolidinyl)ethyl)-L-prolinamide] | 1 to 99
CCN(CC)[C@H](C)C(=O)N1CCC[C@H]1c1ncc(-c2ccc(-c3ccc(-c4cnc([C@@H]5CCCN5C(=O)[C@@H](NC(=O)OC)C(C)C)[nH]4)cc3)cc2F)[nH]1 [Example D43, methyl ((1S)-1-(((2S)-2-(5-(4′-(2-((2S)-1-(N,N-diethyl-D-alanyl)-2-pyrrolidinyl)-1H-imidazol-5-yl)-3′-fluoro-4-biphenylyl)-1H-imidazol-2-yl)-1-pyrrolidinyl)carbonyl)-2-methylpropyl) carbamate] | 0.001 to 0.999

Reference: patent US8574563B2 (Bristol-Myers Squibb Company, priority 2006, dated 2013)
